Results taken from patent US20250221435A1, “Food Protein-Derived Peptides as Bitter Taste Blockers” (University of Manitoba, priority 2018, published 2025).
“And” between values parts separate entries of the source, which are not always exact repeats. Equal entries are not always repeated. “Also recorded” adds a separate entry of the source. Where two headings read alike, the source gives them in different places. Values belong to the compound of their own block, whether it stands above or below them.

Columns and labels:
[1] = Estimation of bitter scores by electronic-tongue (e-tongue); conditions: 1 mM quinine mixed with 5 mg/mL hydrolysate or 59 nM BCML
Protocol: Estimation of bitter scores by electronic-tongue (e-tongue). Each BPH was dissolved in distilled water to give 0.5, 1.0, 2.5, 5.0, and 10.0 mg/mL concentrations followed by filtration first through a 0.45 μm filter disc and then a 0.2 μm filter. Bitter scores of filtered BPH solutions (20 mL) were evaluated using the Astree II E-tongue system (Alpha M.O.S., Toulouse, France). This system is a completely automated taste analyzer equipped with seven sensors, BD, EB, JA, JG, KA, OA, and JE, based on the ChemFET technology (Chemical modified Field Effect Transistor) to analyze liquid samples. Firstly, 0.01 M HCl was used to condition and calibrate sensors and the reference electrode repeatedly until stable signals were obtained for all seven sensors with minimal or no noise and drift. […] Thereafter, the PLS bitterness standard model was constructed using several bitter taste compounds with known bitter taste scores determined from human panelists, including 0.24 mM and 2.36 mM caffeine, 0.03 mM and 0.12 mM quinine, 0.44 mM and 0.88 mM prednisolone, as well as 3.31 mM and 19.85 mM paracetamol. […] The 5 mg/ml sample was determined as the maximum strength useful to evaluate BPH bitterness intensity and this concentration was subsequently used to obtain bitter scores. […]

[2] = target: T1, T2R4 (Homo sapiens, UniProt Q9NYW5); conditions: known T2R4 bitter taste blocker, positive control; read-out: IC50 for quinine of known T2R4 bitter taste blocker; cited from earlier work
T1 construct: expressed in transfected cells
T1 sequence (Q9NYW5 1-299): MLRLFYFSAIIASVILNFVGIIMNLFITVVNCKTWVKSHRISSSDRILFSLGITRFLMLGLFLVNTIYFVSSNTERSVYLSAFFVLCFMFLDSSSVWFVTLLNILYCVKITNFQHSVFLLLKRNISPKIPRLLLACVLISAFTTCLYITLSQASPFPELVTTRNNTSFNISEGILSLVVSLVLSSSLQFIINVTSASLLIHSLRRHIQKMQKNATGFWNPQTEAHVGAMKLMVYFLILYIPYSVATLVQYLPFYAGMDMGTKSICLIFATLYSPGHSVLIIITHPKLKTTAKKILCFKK

[3] = target: T1, T2R4; assay: Calcium mobilization in T2R4-expressing HEK 293T cell system; assay type: cell-based; conditions: for blocking of quinine-dependent calcium release: 1 mM quinine plus 5 mg/mL fraction or 1 mM synthesized peptide
Protocol: Determination of cellular calcium mobilization. Determination of the potential bitter taste-activating or blocking activity of BPH was carried out by measuring intracellular Ca^2+ mobilization using Fluo-4 NW calcium assay kit as previously described.^3 Stable transfected HEK293 cells expressing T2R4 and G-alpha 16/44 or HEK293T cells expressing only G-alpha 16/44 were used as experimental and negative control group, respectively. Around 1×10^5 cells/well plated in the 96-well BD-falcon biolux plate and then incubated at 37° C. in a CO2 incubator for 16 h. After incubation, the culture medium was substituted (for 40 min at 37° C. in the CO2 incubator followed by 30 min incubation at room temperature) with Fluo-4 NW dye solution, which contained lyophilized dye in 10 mL of assay buffer (1× Hanks' balanced salt solution, 20 mM HEPES) and 100 μL 2.5 mM probenecid added to prevent dye leakage from cytosol. Calcium mobilization was measured in terms of relative fluorescence units (RFUs) using a Flexstation-3 microplate reader (Molecular Devices, CA, USA) at 525 nm, following 494 nm excitation. […] The basal intracellular calcium levels were measured for the first 20 s followed by addition of appropriate concentration of ligands for another 120 s. To get the absolute RFUs, the basal RFU before adding the ligand, which was labeled minimum value (Min) was deducted from the maximum RFU (Max) obtained after stimulating with the ligand (absolute RFUs=Max−Min). […] Data were collected from two independent experiments, each done in triplicate.

[4] = target: T2, T2R14 (Homo sapiens, UniProt Q9NYV8); assay: Peptides and agonist competition calcium mobilization assays on T2R14; assay type: cell-based; conditions: for IC50: IC50 for T2R14 activated by diphenhydramine, diphenhydramine 0.5 mM, peptide 0.015 mM-1 mM, HEK293T cells stably expressing T2R14; for blocking of diphenhydramine-dependent T2R14 activation: competition calcium mobilization assay
T2 construct: expressed in transfected cells
T2 sequence (Q9NYV8 1-317): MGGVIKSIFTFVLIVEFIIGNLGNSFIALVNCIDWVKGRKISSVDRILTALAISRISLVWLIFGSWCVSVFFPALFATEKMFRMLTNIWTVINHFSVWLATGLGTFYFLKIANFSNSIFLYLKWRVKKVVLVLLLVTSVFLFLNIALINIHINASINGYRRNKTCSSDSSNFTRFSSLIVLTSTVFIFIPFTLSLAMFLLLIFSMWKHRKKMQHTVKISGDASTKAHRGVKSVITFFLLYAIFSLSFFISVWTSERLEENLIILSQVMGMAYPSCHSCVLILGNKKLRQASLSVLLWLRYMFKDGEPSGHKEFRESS
Protocol: FIG. 9. Peptides and agonist competition calcium mobilization assays on T2R14. HEK293T cells stably expressing T2R14 were treated with the agonist diphenhydramine (0.5 mM) and with increasing concentrations of Peptide 4 (ETSARHL) and Peptide 5 (AGDDAPRAVF) ranging from 0.015 mM-1 mM. Changes in intracellular calcium were measured (ΔRFUs), and IC50 values were calculated using GraphPad Prism 4.0. […] Data were collected from a minimum of two independent experiments carried out in triplicate.
To generalize the applicability of these peptides in blocking other T2Rs, we choose T2R14 as our next target.
Determination of cellular calcium mobilization. Determination of the potential bitter taste-activating or blocking activity of BPH was carried out by measuring intracellular Ca^2+ mobilization using Fluo-4 NW calcium assay kit as previously described.^3 Stable transfected HEK293 cells expressing T2R4 and G-alpha 16/44 or HEK293T cells expressing only G-alpha 16/44 were used as experimental and negative control group, respectively. Around 1×10^5 cells/well plated in the 96-well BD-falcon biolux plate and then incubated at 37° C. in a CO2 incubator for 16 h. After incubation, the culture medium was substituted (for 40 min at 37° C. in the CO2 incubator followed by 30 min incubation at room temperature) with Fluo-4 NW dye solution, which contained lyophilized dye in 10 mL of assay buffer (1× Hanks' balanced salt solution, 20 mM HEPES) and 100 μL 2.5 mM probenecid added to prevent dye leakage from cytosol. Calcium mobilization was measured in terms of relative fluorescence units (RFUs) using a Flexstation-3 microplate reader (Molecular Devices, CA, USA) at 525 nm, following 494 nm excitation. Based on the e-tongue data, BPH at 5 mg/mL, BCML at 59 nM and agonist quinine at 1 mM were used individually or in combination with peptides to determine activation of T2R4. BPH or BCML was then mixed with quinine (1 mM final concentration) to obtain 5 mg/mL or 59 nM, respectively and used to determine inactivation of T2R4. The basal intracellular calcium levels were measured for the first 20 s followed by addition of appropriate concentration of ligands for another 120 s. To get the absolute RFUs, the basal RFU before adding the ligand, which was labeled minimum value (Min) was deducted from the maximum RFU (Max) obtained after stimulating with the ligand (absolute RFUs=Max−Min). Next, the signals from the negative control group cells were deducted from the observed signal of experimental group cells to give ΔRFUs. Data were collected from two independent experiments, each done in triplicate. PRISM software version 4.03 (GraphPad Software, San Diego) was used for data analysis.

[5] = 10 mM quinine solution; cited from earlier work

Compound: NCCCC[C@@H](C(=O)O)N(CC(=O)O)CC(=O)O [BCML, Nα,Nα-bis(carboxymethyl)-I-lysine]
suppression of quinine bitterness intensity (e-tongue) [1]: most decrease | IC50 [2]: 0.059 µM

Compound: CC(C)[C@H](NC(=O)[C@H](C)NC(=O)[C@H](CCCNC(=N)N)NC(=O)[C@@H]1CCCN1C(=O)[C@H](C)NC(=O)[C@H](CC(=O)O)NC(=O)[C@H](CC(=O)O)NC(=O)CNC(=O)[C@H](C)N)C(=O)N[C@@H](Cc1ccccc1)C(=O)O [AGDDAPRAVF]
IC50 [3]: 85 µM | blocking of quinine-dependent calcium release ([3]; T2R4-expressing HEK 293T cells): less calcium mobilization; also recorded: most effective blocker; also recorded: suppressed quinine-dependent calcium release | IC50 [4]: ~100 µM and 118 µM | blocking of diphenhydramine-dependent T2R14 activation [4]: effective in blocking

Compound: cytosine monophosphate [CMP]
reduction in bitterness of quinine solution [5]: 40%

Compound: AAMY: peptide AAMY identified from CHYMOTRYPSIN hydrolysate fraction CH-F4-5, chemically synthesized (synthesized bitter taste blocker)
blocking of quinine-dependent calcium release ([3]; T2R4-expressing HEK 293T cells): less calcium mobilization; also recorded: suppressed quinine-dependent calcium release

Compound: Nc1ncnc2c1ncn2[C@H]1C[C@H](O)[C@@H](COP(=O)(O)OP(=O)(O)OP(=O)(O)O)O1 [dATP, 2-deoxyadenosine triphosphate]
reduction in bitterness of quinine solution [5]: 60%

Compound: CC(C)C[C@H](NC(=O)[C@H](Cc1c[nH]cn1)NC(=O)[C@H](CCCNC(=N)N)NC(=O)[C@H](C)NC(=O)[C@H](CO)NC(=O)[C@@H](NC(=O)[C@@H](N)CCC(=O)O)[C@@H](C)O)C(=O)O [ETSARHL]
blocking of quinine-dependent calcium release ([3]; T2R4-expressing HEK 293T cells): less calcium mobilization; also recorded: suppressed quinine-dependent calcium release; also recorded: most effective | IC50 [4]: ~100 µM and 121 µM | blocking of diphenhydramine-dependent T2R14 activation [4]: effective in blocking

Compound: AAYM: peptide AAYM identified from CHYMOTRYPSIN hydrolysate fraction CH-F4-5, chemically synthesized (synthesized bitter taste blocker)
blocking of quinine-dependent calcium release ([3]; T2R4-expressing HEK 293T cells): suppressed quinine-dependent calcium release

calcium mobilization (ΔRFU), sample alone ([3]; T2R4-expressing HEK 293T cells, hydrolysates 5 mg/mL, quinine 1 mM, peptides 1 mM): highest activity
Compound: C=C[C@H]1C[N@@]2CC[C@H]1C[C@H]2[C@H](O)c1ccnc2ccc(OC)cc12 [Quinine, reference compound]
